biological target: KRas G12D/Q61H double mutant (Homo sapiens (Human), UniProt P01116, G12D/Q61H); test: Ras GTP binding domain inhibition assay (labeled GTP); details: 20 μM compound; read-out: % Inhibition at 20 μM KRas G12D Q61H
Method in brief: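 Ni-plate capture of His-KRas (3-10 μg/ml, o/n, 4° C); Tris pH 7.5/MgCl2/DTT buffer, 1% DMSO. Cpd 20 μM or titration, 3 h RT. Cy3/Cy5-GTP 45 min RT, wash, fluorescence of bound GTP.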

KRas G12D/Q61H double mutant, sequence (P01116-2 other isoform, or with tags, fused parts or gaps G12D/Q61H): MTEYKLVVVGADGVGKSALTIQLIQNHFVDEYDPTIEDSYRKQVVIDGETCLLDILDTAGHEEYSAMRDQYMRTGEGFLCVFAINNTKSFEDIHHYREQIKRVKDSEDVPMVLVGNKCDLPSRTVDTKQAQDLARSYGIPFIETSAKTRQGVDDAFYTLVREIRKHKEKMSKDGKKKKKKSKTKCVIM

Compound	inhibition at 20 µM
Cn1ccnc1COc1ccc(C(=O)Nc2nnc(-c3ccccn3)[nH]2)cc1	25 to 50%
CCOC(=O)C1CCCC1N(Cc1cccc([N+](=O)[O-])c1)C1CC1 (stereo not drawn)	25 to 50%
CN(C)c1ccccc1NCc1cc(Br)c2c(c1)OCCCO2	25 to 50%
COc1ccc(CCC(=O)Nc2nnc(-c3ccccn3)[nH]2)cc1OC	25 to 50%
CCn1c(SCc2csc(-c3cccc(OC)c3OC)n2)nc2cc(S(N)(=O)=O)ccc21	25 to 50%
O=C(NCc1ccccn1)c1ccn(-c2cccc(Cl)c2)n1	25 to 50%
O=C(Nc1nc(-c2ccccn2)cs1)c1cccc(-n2cnnn2)c1	25 to 50%
COc1ccc(CN(Cc2cccs2)C(=O)c2oc3ccccc3c2C)cc1OC	25 to 50%
COc1ccnc(CN2CCOC(C)(c3ccccc3)C2)c1OC (stereo not drawn)	25 to 50%
Cc1ccc(S(=O)(=O)NC(c2ccccc2)c2ccccn2)c(Cl)c1 (stereo not drawn)	25 to 50%
c1ccc(OCc2nc(CNCCn3cccn3)cs2)cc1	25 to 50%
Cc1cc(C2CCCN2c2nccc(C(F)(F)F)n2)no1 (stereo not drawn)	25 to 50%
Cc1cc(NCCNC(=O)Cc2ccccc2)nc(-c2ccccn2)n1	25 to 50%
CC(C(N)=O)N1CCOC(c2nc(-c3ccccc3)cs2)C1 (stereo not drawn)	25 to 50%
c1ccc(Oc2ccccc2NCc2nc(C3CC3)no2)cc1	25 to 50%
CCOC(=O)c1sc(N(C2CC2)S(=O)(=O)c2cc(F)ccc2C)nc1C	25 to 50%
CC1=C(c2ccccc2)C2C(=O)NC(c3cnccn3)=NC2S1 (stereo not drawn)	25 to 50%
Cc1nc(CN(Cc2ccccc2)Cc2ccccc2)no1	25 to 50%
Cc1ccc(-c2c(C)sc3nc(-c4cnccn4)[nH]c(=O)c23)cc1	25 to 50%
CCN1CCN(c2nc(-c3ccccn3)nc3sc(-c4ccccc4)cc23)CC1	25 to 50%
CN(C)S(=O)(=O)c1ccc(N2CCCC2)c(C(=O)NCCCN2CCCC2=O)c1	25 to 50%
CCN(CC)S(=O)(=O)c1ccc(N2CCCC2)c(C(=O)NCCCn2cnc3ccccc32)c1	25 to 50%
OCC1CCCN(c2nc(-c3ccccn3)nc3scc(-c4ccccc4)c23)C1 (stereo not drawn)	25 to 50%
O=S(=O)(NC(c1ccccc1)c1ccccn1)c1cc(C(F)(F)F)ccc1Cl (stereo not drawn)	25 to 50%
Cc1c(C(=O)Nc2nnc(-c3ccccn3)[nH]2)cnn1-c1ccc(C(F)(F)F)cn1	25 to 50%
CC(OCC1CC1)C(=O)Nc1nnc(-c2ccccn2)[nH]1 (stereo not drawn)	25 to 50%
C=CCc1ccc(OCCn2c(CN3CCOCC3)nc3ccccc32)c(OC)c1	25 to 50%

Compound	inhibition at 20 µM
Cc1nc(-c2ccccn2)nc(NCCS(C)(=O)=O)c1C	25 to 50%
Cc1ccc(C)c(OCc2nnc(SCC(C)C(=O)c3ccc(F)c(F)c3)o2)c1 (stereo not drawn)	25 to 50%
CC(C)Cn1cnnc1C1CCCN1c1ccc(C#N)c(C(F)(F)F)c1 (stereo not drawn)	25 to 50%
Cc1sc(NC2CCCCC2)nc1-c1ccc(F)c(F)c1	25 to 50%
COCc1nc(C)c(C(=O)Nc2nnc(-c3ccccn3)[nH]2)s1	25 to 50%
CCOC(=O)c1ccc(C(=O)NCCc2ccc(C(F)(F)F)cc2)nc1C	25 to 50%
N#Cc1ccc(OCCSc2nnc(COc3ccc(F)cc3)o2)cc1	25 to 50%
CN1CCN(Cc2nnc(-c3ccccc3Cl)o2)c2ccc(F)cc21	25 to 50%
COc1cc(C(=O)Nc2nnc(-c3ccccn3)[nH]2)ccc1OCC(N)=O	25 to 50%
Cc1n[nH]c(C2CN(C(C)c3ccncc3)CCO2)n1 (stereo not drawn)	25 to 50%
COC(=O)c1cccc(NCc2nc(CC(C)C)no2)c1	25 to 50%
CN(Cc1ccc(C(=O)NCC(F)(F)F)cc1)Cc1ccc([N+](=O)[O-])cc1	25 to 50%
Cc1[nH]c(-c2ccccn2)nc(=O)c1C	25 to 50%
O=C(c1cccc(S(=O)(=O)N2CCOCC2)c1)N1N=C(c2ccccc2)CC1(O)C(F)(F)F (stereo not drawn)	25 to 50%
O=C(Cc1ccc(OC(F)(F)F)cc1)Nc1nnc(-c2ccccn2)[nH]1	25 to 50%
Cc1ccc2cccc(OS(=O)(=O)N3CCOCC3)c2n1	25 to 50%
COC(=O)CCN(Cc1ccc(Oc2ccc(OC)cc2)cc1)C1CCOCC1	1 to 25%
O=c1[nH]c(-c2cnc(Oc3ccccc3)cn2)nc2ccsc12	1 to 25%
Fc1ccc(OCCSc2nnc(C3COc4ccccc4O3)o2)cc1 (stereo not drawn)	1 to 25%
O=c1[nH]c(-c2cnccn2)nc2ccccc12	1 to 25%
CN(Cc1nc2ccccc2n1C)C(=O)c1cccc(Cl)n1	1 to 25%
O=C(Nc1ccc(N2CCOCC2)cc1)c1ccccc1OCCOc1ccccc1	1 to 25%
N#Cc1ccc(N2CCCC2c2ccco2)cc1C(F)(F)F (stereo not drawn)	1 to 25%
Cc1nc(CC(C)C)sc1C(=O)Nc1nnc(-c2ccccn2)[nH]1	1 to 25%
OCCCSCCNc1nc(-c2ccccn2)nc2c1CCC2	1 to 25%
COc1ccc(OCCn2c(CN3CCCCC3)nc3ccccc32)cc1	1 to 25%
Cn1nc(-c2ccncc2)cc1NC(=O)c1cccnc1	1 to 25%

Compound	inhibition at 20 µM
CC(C)N1C(=O)CC(Nc2cc(C(F)(F)F)nc(-c3ccccn3)n2)C1=O (stereo not drawn)	1 to 25%
O=C(c1csc(-c2ncccn2)n1)N1CCC(c2ccc(O)cc2)CC1	1 to 25%
CN(C(=O)c1ccc(COc2ccc(Br)cc2)o1)C1CCS(=O)(=O)C1 (stereo not drawn)	1 to 25%
Cc1ccc(C(C)C)cc1OS(=O)(=O)N1CCc2ccccc2C1	1 to 25%
Cc1cccc(OCCNC(=O)c2cc(S(=O)(=O)N3CCOCC3)ccc2N2CCOCC2)c1	1 to 25%
CCN(CC)S(=O)(=O)c1ccc(N2CCOCC2)c(C(=O)NCCCn2cnc3ccccc32)c1	1 to 25%
COc1ccc(-c2nc(C(=O)NCc3ccccn3)cs2)cc1	1 to 25%
Cc1ccc(NC(=O)c2sc3nc(-c4ncccn4)[nH]c(=O)c3c2C)c(C)c1	1 to 25%
Cc1ccc(OCc2nnc(SCC3CCCCO3)o2)cc1 (stereo not drawn)	1 to 25%
CN(Cc1ccc(OCc2ccccn2)cc1)Cc1ccccc1OC(F)(F)F	1 to 25%
CN(CC(=O)N1CCOCC1)C(=O)c1ccc(COc2ccc(F)cc2)o1	1 to 25%
COC(=O)c1ccc(C(=O)NCC(c2ccccc2)N2CCOCC2)nc1 (stereo not drawn)	1 to 25%
Cc1ccccc1CC(=O)N(CC(F)(F)F)C1CCCOC1 (stereo not drawn)	1 to 25%
C=CCn1c(SCc2csc(-c3cccc(OC)c3OC)n2)nc2ccccc21	1 to 25%
O=C(Nc1nnc(-c2ccccn2)[nH]1)c1cccc(Nc2ncccn2)c1	1 to 25%
COc1ccccc1CN(Cc1cccs1)C(=O)c1ccc(S(=O)(=O)N2CCOCC2)cc1	1 to 25%
c1cc2c(cc1-c1csc(C3CC3)n1)CCC2	1 to 25%
O=C1NCCCC1Nc1cc(C(F)(F)F)nc(-c2ccccn2)n1 (stereo not drawn)	1 to 25%
Cc1ccccc1OCCn1c(CN2CCOCC2)nc2ccccc21	1 to 25%
CCN(C(=O)c1ccc(COc2ccccc2F)o1)c1ccccc1C	1 to 25%
COCc1ccc(C(=O)N(Cc2cccs2)Cc2ccccc2OC)cc1	1 to 25%
O=C(c1ccc(COc2ccccc2F)o1)N1CCOc2ccccc21	1 to 25%
CC(=O)Nc1cccc(C(C)N(Cc2ccccc2)Cc2nc(-c3ccc(Cl)cc3)no2)c1 (stereo not drawn)	1 to 25%
CCOCCCNC(=O)c1cc(S(=O)(=O)N(CC)CC)ccc1NCCOC	1 to 25%
CCc1cc(NC(C)C(=O)N2CCOCC2)nc(-c2ccccn2)n1 (stereo not drawn)	1 to 25%
C=CCNC(=O)CN1CCOC(c2nc(-c3ccccc3)cs2)C1 (stereo not drawn)	1 to 25%
Cc1nc(-c2ccccn2)nc(NC(C)CO)c1C (stereo not drawn)	1 to 25%

Compound	inhibition at 20 µM
COc1ccccc1CC(=O)N(CC(F)(F)F)C1CCCOC1 (stereo not drawn)	1 to 25%
CN(C(=O)c1ccc(COc2ccccc2)o1)C1CCCCC1	1 to 25%
CC(C)CN1CC(C(=O)Nc2nc(-c3ccccn3)cs2)CC1=O (stereo not drawn)	1 to 25%
COc1ccccc1CN(Cc1cccs1)C(=O)c1ccc(-c2nc(C)no2)cc1	1 to 25%
COc1ccccc1-c1nnc(CNc2ccc(Cl)cc2Cl)o1	1 to 25%
FC(F)(F)c1ccnc(N2CCCC2c2cccs2)n1 (stereo not drawn)	1 to 25%
CC(C)Cc1cc(C(=O)Nc2cc(-c3ccncc3)nn2C)[nH]n1	1 to 25%
O=C(NCCc1cccs1)c1cc(S(=O)(=O)N2CCCCC2)ccc1N1CCOCC1	1 to 25%
FC(F)(F)c1cccc(N2CCN(c3ncnc4sccc34)CC2)c1	1 to 25%
O=C(Nc1nnc(-c2ccccn2)s1)c1nccc2ccccc12	1 to 25%
COc1ccc(CCNC(=O)c2cc(S(=O)(=O)N3CCOCC3)ccc2OC)cc1OC	1 to 25%
CN(C)C1CN(C(=O)Nc2nc(-c3cccnc3)cs2)C1	1 to 25%
COc1cc(C)ccc1OS(=O)(=O)N1CCc2ccccc2C1	1 to 25%
CC(C)Cc1nc(CN(C)CC(=O)Nc2ccc(Cl)c(S(=O)(=O)N3CCOCC3)c2)no1	1 to 25%
CCN(CC(=O)Nc1ccccc1OC)Cc1coc(-c2cccs2)n1	1 to 25%
Cc1cc(C)n2nc(CC(=O)N(Cc3ccc(F)cc3)C3CC3)nc2n1	1 to 25%
C#Cc1cccc(N(CC(=O)N2CCOCC2)C(=O)c2ccc(COc3ccccc3F)o2)c1	1 to 25%
N#CC1CN(c2nccc(C(F)(F)F)n2)CCN1Cc1ccccc1 (stereo not drawn)	1 to 25%
CCN(CC)S(=O)(=O)c1ccc(NCCOC)c(C(=O)NCCC(C)C)c1	1 to 25%
CN(c1ccccc1)c1ccccc1NCc1nnnn1-c1ccccc1	1 to 25%
O=C(NCc1ccccn1)c1csc(-c2ccc(Cl)cc2)n1	1 to 25%
Cc1cccc(Oc2ccc(S(=O)(=O)N3CCCCC3)cc2NCc2cc(C)on2)c1	1 to 25%
N#Cc1ccccc1CN1CCN(c2cccc(C(F)(F)F)c2)CC1	1 to 25%
Cc1cc(C2CCCN2c2cc(C(F)(F)F)nc3ncnn23)no1 (stereo not drawn)	1 to 25%

From patent US10940139B2, “Compounds that interact with the Ras superfamily for the treatment of cancers, inflammatory diseases, rasopathies, and fibrotic disease” (Shy Therapeutics LLC, priority 2017, dated 2021)
